The results in this text go back to patent US20240025906A1 (NEURON23, INC., priority 2022, published 2024).

Test [1] deals with T1, TYK2 JH2 (Homo sapiens, UniProt P29597).
T1 construct: purchased DiscoverX (KINOMEscan KdELECT service); host or cells: E. coli BL21-derived (T7 phage display) or HEK-293
The experiment in a line: TYK2 JH2 binding assay (KINOMEscan KdELECT competitive binding). The settings on record: TYK2 JH2 domain, DiscoverX KINOMEscan KdELECT (Assay A); read-out: Biochemical TYK2_DiscoverX_JH2_BND_Kd. A digest of the protocol:
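Kd values come from qPCR measurement of kinase retained on an immobilized-ligand resin after 1 h room-temperature competition with compound in an 11-point, 3-fold series.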

Test [2] has as its system JAK1/TYK2 pSTAT5 (Tyr694/699) in THP-1 cell line. Description: IFNa-stimulated JAK1/TYK2 pSTAT5 (Tyr694/699) inhibition cellular assay, AlphaLISA. The format is cell-based. The settings on record: Homo sapiens; THP-1 cells, IFNa-stimulated, AlphaLISA (Assay B); read-out: Cellular_THP1_IFNa-pSTATS_TYK2. A digest of the protocol: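 pSTAT5 (Tyr694/699) in lysates quantified by AlphaLISA (615 nm) after 30 min IFNa stimulation (100 ng/mL stock) of THP-1 cells. The cells, 2e4 per well in HBSS, had first been exposed 1 h at 37° C. to eight 6-fold compound dilutions, 10000 down to 0.04 nM final. IC50 fitted by 4PL regression, bottom 0, Hill slope −1.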

T1 sequence (P29597 589-875 limits assumed): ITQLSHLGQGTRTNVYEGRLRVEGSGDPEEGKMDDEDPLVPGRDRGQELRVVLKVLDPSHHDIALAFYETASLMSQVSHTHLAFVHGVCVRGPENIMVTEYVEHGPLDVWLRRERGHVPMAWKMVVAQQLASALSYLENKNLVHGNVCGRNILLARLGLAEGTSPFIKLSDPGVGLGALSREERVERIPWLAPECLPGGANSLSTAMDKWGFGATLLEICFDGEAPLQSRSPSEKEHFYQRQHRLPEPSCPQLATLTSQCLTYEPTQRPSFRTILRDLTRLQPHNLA

Take `CNc1ncc(-c2nc3ccc(OCC4CC4)cn3n2)c2cc(NC(=O)C3CC3)ncc12` [Example 495, N-(5-(6-(cyclopropylmethoxy)-[1,2,4]triazolo[1,5-a]pyridin-2-yl)-8-(methylamino)-2,7-naphthyridin-3-yl)cyclopropanecarboxamide]: in test [1], the Kd is not above 100 nM. In addition, the IC50 in test [2] was not above 500 nM.

Take `CNc1ncc(-c2nc3ccc(C(F)(F)F)cn3n2)c2cc(NC(=O)C3CC3)ncc12` [Example 496, N-(8-(methylamino)-5-(6-(trifluoromethyl)-[1,2,4]triazolo[1,5-a]pyridin-2-yl)-2,7-naphthyridin-3-yl)cyclopropanecarboxamide]: the Kd in test [1] was not above 100 nM. In test [2], the IC50 is not above 500 nM.

As for `CNc1ncc(-c2nc3ccc(S(C)(=O)=O)cn3n2)c2cc(NC(=O)C3CC3)ncc12` [Example 497, N-(8-(methylamino)-5-(6-(methylsulfonyl)-[1,2,4]triazolo[1,5-a]pyridin-2-yl)-2,7-naphthyridin-3-yl)cyclopropanecarboxamide], the Kd in test [1] is not above 100 nM. For the same molecule, the IC50 in test [2] is not above 500 nM.

For the molecule `CNc1ncc(-c2nc3ccc(OCC(C)(C)C#N)cn3n2)c2cc(NC(=O)C3CC3)ncc12` [Example 498, N-(5-(6-(2-cyano-2-methylpropoxy)-[1,2,4]triazolo[1,5-a]pyridin-2-yl)-8-(methylamino)-2,7-naphthyridin-3-yl)cyclopropanecarboxamide], in test [1], the Kd was not above 100 nM. The IC50 in test [2] is not above 500 nM.

`CNc1ncc(-c2nc3cc(F)c(N4CCOC(C)C4)cn3n2)c2cc(NC(=O)C3CC3)ncc12` (centres unmarked) [Example 499, N-(5-(7-fluoro-6-(2-methylmorpholino)-[1,2,4]triazolo[1,5-a]pyridin-2-yl)-8-(methylamino)-2,7-naphthyridin-3-yl)cyclopropanecarboxamide]: the Kd in test [1] was not above 100 nM. Further, in test [2], the IC50 is not above 500 nM.

For the molecule `CNc1ncc(-c2nc3ccc(OCc4ccccc4)cn3n2)c2cc(NC(=O)C3CC3)ncc12` [Example 500, N-(5-(6-(benzyloxy)-[1,2,4]triazolo[1,5-a]pyridin-2-yl)-8-(methylamino)-2,7-naphthyridin-3-yl)cyclopropanecarboxamide], in test [1], the Kd is not above 100 nM. Besides, in test [2], the IC50 was not above 500 nM.

Regarding `CNc1ncc(-c2nc3ccc(OCC(C)(C)O)cn3n2)c2cc(NC(=O)C3CC3)ncc12` [Example 501, N-(5-(6-(2-hydroxy-2-methylpropoxy)-[1,2,4]triazolo[1,5-a]pyridin-2-yl)-8-(methylamino)-2,7-naphthyridin-3-yl)cyclopropanecarboxamide], in test [1], the Kd was not above 100 nM. In addition, the IC50 in test [2] is not above 500 nM.

Turning to `CNc1ncc(-c2nc3ccc(N4CC5CC(CN(C)C5)C4)cn3n2)c2cc(NC(=O)C3CC3)ncc12` [Example 502, N-(5-(6-(7-methyl-3,7-diazabicyclo[3.3.1]nonan-3-yl)-[1,2,4]triazolo[1,5-a]pyridin-2-yl)-8-(methylamino)-2,7-naphthyridin-3-yl)cyclopropanecarboxamide], the Kd in test [1] is not above 100 nM. In addition, the IC50 in test [2] was not above 500 nM.

On to `CNc1ncc(-c2nc3ccc(C)cn3n2)c2cc(NC(=O)C3CC3)ncc12` [Example 503, N-(5-(6-methyl-[1,2,4]triazolo[1,5-a]pyridin-2-yl)-8-(methylamino)-2,7-naphthyridin-3-yl)cyclopropanecarboxamide], for which, in test [1], the Kd was not above 100 nM. Besides, in test [2], the IC50 is not above 500 nM.

Regarding `CNc1ncc(-c2nc3ccc(N4CC5CN(C)CC(C4)O5)cn3n2)c2cc(NC(=O)C3CC3)ncc12` [Example 504, N-(5-(6-(7-methyl-9-oxa-3,7-diazabicyclo[3.3.1]nonan-3-yl)-[1,2,4]triazolo[1,5-a]pyridin-2-yl)-8-(methylamino)-2,7-naphthyridin-3-yl)cyclopropanecarboxamide], the Kd in test [1] is not above 100 nM. Also, the IC50 in test [2] was not above 500 nM.

On to `CNc1ncc(-c2nc3c(F)cc(C)cn3n2)c2cc(NC(=O)C3CC3)ncc12` [Example 505, N-(5-(8-fluoro-6-methyl-[1,2,4]triazolo[1,5-a]pyridin-2-yl)-8-(methylamino)-2,7-naphthyridin-3-yl)cyclopropanecarboxamide], for which the Kd in test [1] is not above 100 nM. Further, in test [2], the IC50 is not above 500 nM.

With `CCO/C=C\c1cccc2nc(-c3cnc(NC)c4cnc(NC(=O)C5CC5)cc34)nn12` [Example 506, (Z)—N-(5-(5-(2-ethoxyvinyl)-[1,2,4]triazolo[1,5-a]pyridin-2-yl)-8-(methylamino)-2,7-naphthyridin-3-yl)cyclopropanecarboxamide], the Kd in test [1] was not above 100 nM. In addition, in test [2], the IC50 was not above 500 nM.

`CCOCCc1cccc2nc(-c3cnc(NC)c4cnc(NC(=O)C5CC5)cc34)nn12` [Example 507, N-(5-(5-(2-ethoxyethyl)-[1,2,4]triazolo[1,5-a]pyridin-2-yl)-8-(methylamino)-2,7-naphthyridin-3-yl)cyclopropanecarboxamide]: the Kd in test [1] was not above 100 nM. In addition, the IC50 in test [2] is not above 500 nM.

Take `CNc1ncc(-c2nc3ccc(N4CCO[C@@H](C)C4)c(F)n3n2)c2cc(NC(=O)C3CC3)ncc12` [Example 508, (S)—N-(5-(5-fluoro-6-(2-methylmorpholino)-[1,2,4]triazolo[1,5-a]pyridin-2-yl)-8-(methylamino)-2,7-naphthyridin-3-yl)cyclopropanecarboxamide]: in test [1], the Kd is not above 100 nM. For the same molecule, in test [2], the IC50 was not above 500 nM.

As to `CNc1ncc(-c2nc3ccc(N4CCO[C@@H](C)C4)c(Cl)n3n2)c2cc(NC(=O)C3CC3)ncc12` [Example 509, (S)—N-(5-(5-chloro-6-(2-methylmorpholino)-[1,2,4]triazolo[1,5-a]pyridin-2-yl)-8-(methylamino)-2,7-naphthyridin-3-yl)cyclopropanecarboxamide], in test [1], the Kd was not above 100 nM. Besides, the IC50 in test [2] was not above 500 nM.

On to `CNc1ncc(-c2nc3ccc(OCCS(C)(=O)=O)cn3n2)c2cc(NC(=O)C3CC3)ncc12` [Example 510, N-(8-(methylamino)-5-(6-(2-(methylsulfonyl)ethoxy)-[1,2,4]triazolo[1,5-a]pyridin-2-yl)-2,7-naphthyridin-3-yl)cyclopropanecarboxamide], for which the Kd in test [1] is not above 100 nM. The IC50 in test [2] is not above 500 nM.

Regarding `[2H]C([2H])([2H])Nc1ncc(-c2nc3ccc(OC)cn3n2)c2cc(NC(=O)C3CC3)ncc12` [Example 511, N-(5-(6-methoxy-[1,2,4]triazolo[1,5-a]pyridin-2-yl)-8-((methyl-d3)amino)-2,7-naphthyridin-3-yl)cyclopropanecarboxamide], in test [1], the Kd was not above 100 nM. Also, in test [2], the IC50 was not above 500 nM.

As for `[2H]C([2H])([2H])Nc1ncc(-c2nc3ccc(N4CCO[C@H](C)C4)cn3n2)c2cc(NC(=O)C3CC3)ncc12` [Example 512, (R)-N-(8-((methyl-d3)amino)-5-(6-(2-methylmorpholino)-[1,2,4]triazolo[1,5-a]pyridin-2-yl)-2,7-naphthyridin-3-yl)cyclopropanecarboxamide], the Kd in test [1] was not above 100 nM. In addition, the IC50 in test [2] is not above 500 nM.

Take `[2H]C([2H])([2H])Nc1ncc(-c2nc3ccc(N4CCC(F)(F)CC4)cn3n2)c2cc(NC(=O)C3CC3)ncc12` [Example 513, N-(5-(6-(4,4-difluoropiperidin-1-yl)-[1,2,4]triazolo[1,5-a]pyridin-2-yl)-8-((methyl-d3)amino)-2,7-naphthyridin-3-yl)cyclopropanecarboxamide]: in test [1], the Kd is not above 100 nM. Further, in test [2], the IC50 was not above 500 nM.
